{
  "source": "patent US20220281930A1",
  "about": "“COMPOSITIONS AND METHODS FOR THE TREATMENT OF PATHOLOGICAL PAIN AND ITCH” (DUKE UNIVERSITY, priority 2019, published 2022)",
  "key": {"neuronal [Cl—]i": {"system": "neuronal [Cl—]i", "experiment": "Clomeleon chloride imaging in rat primary cortical neurons", "format": "cell-based", "method": "Chloride imaging of primary cultured cortical neurons was conducted as previously described (Kuner and Augustine, 2000, Neuron 27:447-459; Liedtke et al., 2013, Small 9:1066-1075; Yeo et al., 2009, J Neurosci 29:14652-14662). A Clomeleon expression plasmid was transfected into primary cortical neurons by electroporation (Amaxa Nucleofector Device). Transfected neurons were verified by yellow fluorescent protein (YFP) fluorescence, and ratiometric images (excitation at λ=434 nm, dual emission at λ=485 and 535 nm; for resting chloride, six stable frames at […] were captured, which were averaged) were acquired using RATIOTOOL program. Calibration of Clomeleon signals (535 nm/485 nm emission ratio) was performed by using tributyltin-nigericin to establish a standard curve, which was then normalized for measured intraneuronal pH to take into account the pH sensitivity of Clomeleon."}, "nerve injury pain": {"system": "nerve injury pain", "experiment": "Nerve constriction injury (PSNL) pain model, mechanical withdrawal", "format": "in vivo, mouse", "method": "For pain-related behavior, mechanical allodynia was assessed with von Frey filaments (Ugo Basile, Italy). The mice were placed on a 5×5-mm wire-mesh grid floor in individual compartments to avoid visual stimulation and allowed to adapt for 0.5 h prior to the von Frey test. The von Frey filament was then applied to the middle of the plantar surface of the hind paw with 5 g force. The withdrawal responses following the hind paw stimulation were measured at least three times, and the mechanical allodynia, which was defined as an increase in the number of withdrawal responses to the stimulation, was compared.\nThus, in vivo, KP functions as an analgesic when administered systemically in injury-related pain models.\nNext, whether the analgesic effects of KP were mediated centrally at the spinal cord level was assessed.\nMechanical withdrawal was measured thresholds after nerve constriction injury (PSNL) (FIG. 12B and FIG. 12C). […] Thus, δ-cat(S276A) spinal transgenesis via AAV9 is sufficient to evoke analgesia after nerve constriction injury, to lesser degree also with δ-cat(WT). Importantly, δ-cat(S276A) spinal transgenesis was accompanied by increased expression of KCC2 in the SCDH. […] Moreover, our discovery points toward a genetically-encoded approach that can be developed for translation into clinical use as an alternative or complement to KP-related small molecules."}, "[1]": {"system": "DNFB chronic contact dermatitis model", "experiment": "DNFB chronic contact dermatitis scratching behavior", "format": "in vivo, mouse", "settings": "daily i.p. 30 mg/kg", "method": "To assess scratching behavior as a behavioral correlate of itch, mice were shaved at the dorsal neck where topical application of 0.5% DNFB was applied (day 1). […] On day 12, mice were allowed to acclimate to a Plexiglas chamber for at least 30 mins before performing itch behavior test. Scratching behavior was recorded by a Panasonic video camera for a 30-min observation period. Hind limb scratching behavior directed toward the shaved area at the nape of neck was observed. One scratch is defined as a lifting of the hind limb toward the injection site and then a replacing of the limb back to the floor, regardless of how many scratching strokes take place between those two movements. Behavioral analysis was conducted by observers blinded to treatment procedure. DNFB-induced scratching behavior was recorded on day 12 for 1 h. […] Based on these findings, KP's anti-pruritic effects were assessed because inhibitory transmission in the SCDH plays an important role in chronic pruritus (Akiyama et al., 2015, Pain 156:1240-1246.; Bourane et al., 2015, Science 350:550-554; Braz et al., 2017, Prog Brain Res 231:87-105; Braz et al., 2014, J Clin Invest 124:3612-3616; Koch et al., 2018, Annual review of physiology 80:189-217; Mishra and Hoon, 2015, Handbook of experimental pharmacology 226:151-162)."}, "[2]": {"system": "delta-cat binding to KCC2 promoter", "experiment": "ChIP with anti-delta-cat antibody at KCC2 promoter", "format": "cell-based, rat", "settings": "KP-treatment vs vehicle", "method": "ChIP assay was carried out as described previously (Yeo et al., 2009, J Neurosci 29:14652-14662; Yeo et al., 2013, Proc Natl Acad Sci USA 110:4315-4320). Primary cortical neurons (0.7×10^6) were used for each ChIP experiment. Cells were crosslinked with 1% formaldehyde for 30 min, washed twice with cold PBS, resuspended in lysis buffer [1% SDS, 10 mm EDTA, and 50 mm Tris-HCl, pH 8.0, with protease inhibitor cocktail (Roche)], and sonicated for 15 s pulses. The lysates were clarified by centrifugation at 10,000 rpm for 10 min at 4° C. in a microcentrifuge. One-tenth of the total lysate was used as input control of genomic DNA. Supernatants were collected and diluted in buffer (1% Triton X-100, 2 mm EDTA, 150 mm NaCl, 20 mm Tris-HCl, pH 8.0, and protease inhibitor cocktail) followed by immunoclearing with 1 mg of salmon sperm DNA, 10 ml of rabbit IgG, and 20 ml of protein A/G-Sepharose (Santa Cruz Biotechnology) for 1 h at 4° C. Immunoprecipitation was performed overnight at 4° C. with 2 mg of each specific antibody. Precipitates were washed sequentially for 10 min each in TSE1 buffer (0.1% SDS, 1% Triton X-100, 2 mm EDTA, 150 mm NaCl, and 20 mm Tris-HCl, pH 8.0), TSE2 (TSE1 with 500 mm NaCl), and TSE3 (0.25 m LiCl, 1% NP-40, 1% deoxycholate, 1 mm EDTA, and 10 mm Tris-HCl, pH 8.0). Precipitates were then washed twice with 10 mm Tris/0.1 mm EDTA, pH 7.8 and extracted with 1% SDS containing 0.1 m NaHCO3. Eluates were pooled and heated at 65° C. for 4 h to reverse formaldehyde crosslinking. DNA fragments were purified with Qiagen Qiaquick spin kit. For ChIP PCR, 1 l of a 25 l DNA extraction was used.\nConsequently, catenins effects on the KCC2 promoter was explored."}, "GSK3ß": {"molecular_target": "GSK3ß (Homo sapiens, UniProt P49841)", "sequence (P49841 whole entry)": "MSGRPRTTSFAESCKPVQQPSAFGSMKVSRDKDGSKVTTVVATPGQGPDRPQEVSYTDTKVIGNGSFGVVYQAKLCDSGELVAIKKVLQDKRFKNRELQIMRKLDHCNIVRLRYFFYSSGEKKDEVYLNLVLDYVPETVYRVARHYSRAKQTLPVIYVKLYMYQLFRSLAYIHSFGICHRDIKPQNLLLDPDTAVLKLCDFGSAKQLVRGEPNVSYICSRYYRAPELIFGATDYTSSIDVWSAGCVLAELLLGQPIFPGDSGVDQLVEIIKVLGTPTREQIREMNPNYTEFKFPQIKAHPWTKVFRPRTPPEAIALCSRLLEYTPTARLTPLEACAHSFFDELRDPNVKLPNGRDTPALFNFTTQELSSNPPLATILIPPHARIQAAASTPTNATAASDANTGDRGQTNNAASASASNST", "settings": "literature; cited from earlier work"}},
  "data": [
    {"smiles": "O=C1Cc2c([nH]c3ccc(Br)cc23)-c2ccccc2N1", "note": "[kenpaullone, 9-bromo-7,12-dihydro-indolo [3,2-d] [1]benzazepin-6(5H)-one]", "values": [
      {"measurement": "KCC2 chloride transporter mediated chloride efflux", "setting": "neuronal [Cl—]i; KP vs vehicle at 10 min and 20 min time-points", "result": "does not enhance"},
      {"measurement": "neuronal [Cl—]i", "setting": "neuronal [Cl—]i; clomeleon, after KP treatment vs vehicle", "result": "robustly and significantly reduced"},
      {"measurement": "time to enhanced KCC2 gene expression and KCC2 chloride extrusion function", "setting": "neuronal [Cl—]i; rat neurons, FIG. 2D", "result": "≤ 3", "unit": "h"},
      {"measurement": "analgesic effect on sensitized mechanical withdrawal", "setting": "nerve injury pain; 10 mg/kg i.p. daily after nerve constriction injury", "result": "less accentuated"},
      {"measurement": "analgesic effect on sensitized mechanical withdrawal", "setting": "nerve injury pain; 30 mg/kg i.p. daily after nerve constriction injury", "result": "more pronounced"},
      {"measurement": "behavioral sensitization of juvenile mice", "setting": "nerve injury pain; KP 30 mg/kg, PSNL, juvenile mice", "result": "almost complete behavioral recovery"},
      {"measurement": "mechanical allodynia", "setting": "nerve injury pain; intrathecal 30 μg, nerve constriction injury", "result": "reduced mechanical allodynia"},
      {"measurement": "protracted analgesia", "setting": "nerve injury pain; systemic KP, d7-14 after nerve constriction", "result": "almost complete elimination of sensitization"},
      {"measurement": "scratching behavior of sensitized sites", "setting": "[1]", "result": "significantly reduced robust scratching behavior"},
      {"measurement": "binding of delta-cat to Kaiso1 site", "setting": "[2]", "result": "significantly reduced binding"},
      {"measurement": "binding of delta-cat to Kaiso2 site", "setting": "[2]", "result": "significantly increases binding"},
      {"measurement": "binding of delta-cat to TCF site", "setting": "[2]", "result": "non-significant increase"},
      {"measurement": "potency of GSK3ß inhibition among known targets", "setting": "GSK3ß", "result": "highest potency"}
    ]}
  ]
}
